Measured values as given in ChEMBL document CHEMBL1132036, “Inhibition of E. coli growth by fullerene derivatives and inhibition mechanism” (Bioorg Med Chem Lett, 1999).
pIC50: −log10 of the molar value.

What was measured:
Escherichia coli [1] = assay: Compound was tested for inhibition of Escherichia coli dioxgen consumption.; format: functional
Escherichia coli [2] = assay: Compound was tested for inhibition of Escherichia coli growth; format: functional, organism-based

O=C(O)C1(C(=O)O)C23c4c5c6c7c8c9c%10c%11c%12c%13c%14c(c-5c5c%15c%16c(c%17c%18c2c2c4c7c4c8c7c%10c8c%10c%11c%11c%13c(c%14%15)c%13c%16c%14c%17c%15c%18c%16c2c4c2c7c8c4c(c%162)c%15c2c%14c%13c%11c%10c24)C513)C61C(C(=O)O)(C(=O)O)C9%121 (stereo not given)
Dioxygen uptake rate (Escherichia coli [1]): 42.2 µM/min
pIC50 (Escherichia coli [2]): 4.00

C[N+]12CCN(CC1)C13c4c5c6c7c8c4c4c1c1c9c%10c%11c%12c(c5c5c6c6c%13c%14c%15c%16c%17c%18c%19c%20c%21c%22c%23c%24c%25c(c-%16c(c8c%25c4c%24c1c%22c9c1c%21c4c%19c(c%18%14)c8c%13c5c%12c8c4c%111)C7C%156)C%17C%23%20)C%1032 (stereo not given)
Dioxygen uptake rate (Escherichia coli [1]): 13.7 µM/min

C[N+]1(C)CC23c4c5c6c7c8c4c4c2c2c9c%10c%11c%12c(c5c5c6c6c%13c%14c%15c%16c%17c%18c%19c%20c%21c%22c%23c%24c%25c(c-%16c(c8c%25c4c%24c2c%22c9c2c%21c4c%19c(c%18%14)c8c%13c5c%12c8c4c%112)C7C%156)C%17C%23%20)C%103C1.C[N+]1(C)CC23c4c5c6c7c8c4c4c2c2c9c%10c%11c%12c(c5c5c6c6c%13c%14c%15c%16c%17c%18c%19c%20c%21c%22c%23c%24c%25c(c-%16c(c8c%25c4c%24c2c%22c9c2c%21c4c%19c(c%18%14)c8c%13c5c%12c8c4c%112)C7C%156)C%17C%23%20)C%103C1.[I-].[I-] (stereo not given)
Dioxygen uptake rate (Escherichia coli [1]): 4.1 µM/min
pIC50 (Escherichia coli [2]): 5.30
